Patent publication US20130005696A1, “BUFADIENOLIDE DERIVATIVES, PREPARING PROCESS THEREOF, COMPOSITION COMPRISING THE SAME AND THE USE THEREOF” (priority 2011, published 2013)

Tested on: HeLa human cervical carcinoma cell line
Assay: In vitro antitumor activity assay (SRB), HeLa
Format: cell-based
Details: Table 1, read-out: IC50, inhibitory activity on cell proliferation of HeLa cell line
Excerpt: HeLa human cervical carcinoma cell line, A-549 human non-small cell lung carcinoma cell line, NCI-H2228 human lung carcinoma cell line, NCI-H460 human lung carcinoma cell line, MDA-MB-231 human breast carcinoma cell line, MCF-7 human breast carcinoma cell line, Bel-7402 human hepatic carcinoma cell line, Hep3B human hepatic carcinoma cell line, QGY-7703 human hepatic carcinoma cell line, MV-4-11 human leukemic cell line, DAUDI human leukemic cell line, Jurkat human leukemic cell line, A498 renal carcinoma cell line, LoVo human colon carcinoma cell line, HCT1116 human colon carcinoma cell line, A431 human skin carcinoma cell line, PANC-1 human pancreatic carcinoma cell line, U87-MG human brain carcinoma cell line, SH-SY5Y human brain carcinoma cell line, RPMI-8226 human bone carcinoma cell line, HT1080 human fibrosarcoma cell line, PC-3 human prostatic carcinoma cell line, AGS human gastric adenocarcinoma cell line, and BGC-823 human gastric adenocarcinoma cell line were purchased from the Cell Bank of the Chinese Academy of Sciences.
The positive control is bufalin (formulated according to the common method), its purity is 98% or more by HPLC-UV and its structure is identified by NMR. The compounds to be tested and the positive control were diluted with normal saline with a concentration gradient of 10^−4 M, 10^−5 M, 10^−6 M, 10^−7 M and 10^−8 M.
According to cell growth rate, tumor cells in the log phase of growth were seeded into 96-well culture plates at 100 μL per well, and allowed to attach for 24 hours, followed by addition of a test compound or positive control at 10 μL per well. For each concentration, the test was carried out in triplicate wells. Solvent control wells with addition of normal saline into cell culture and a blank well containing only cell culture medium but without cells for zeroing were also included. The tumor cells were incubated for 72 hours at 37° C. under 5% CO2, and then the culture medium (RPMI-1640) was removed. The cells were fixed with 10% cool TCA by incubating for 1 h at 4° C., washed with distilled water for 5 times, and dried naturally in the air. A solution of SRB (Sigma) (4 mg/mL) in 1% glacial acetic acid was added at 100 μL per well, and the cells were stained for 15 minutes at room temperature, and the supernatant was discarded. The plates were washed for 5 times with 1% acetic acid, and dried in air. Finally, Tris solution was added at 150 μL per well, and the absorbance (A) was measured at a wavelength of 515 nm using a microplate reader. The growth inhibition on tumor cell proliferation was calculated according to the following equation:
Growth Inhibition (%)=[(Absorbance of negative control−Absorbance of blank)−(Absorbance of sample−Absorbance of blank)]/(Absorbance of negative control−Absorbance of blank)×100%
Drug concentration: 10 μM, 1 μM, 0.1 μM, 10 nM, 1 nM, 0.1 nM.
IC50 was fitted by GraphPad Prism 4.

Compound | IC50
C[C@]12CC[C@H](NC(=O)N3CCNCC3)C[C@H]1CC[C@@H]1[C@@H]2CC[C@]2(C)[C@@H](c3ccc(=O)oc3)CC[C@]12O [III1D-02] | 5.68 nM

Same assay, conditions: read-out: IC50, inhibitory activity on cell proliferation of HeLa cell line

Compound | IC50
CN(C)CCNC(=O)O[C@H]1CC[C@@]2(C)[C@H](CC[C@@H]3[C@@H]2CC[C@]2(C)[C@@H](c4ccc(=O)oc4)CC[C@]32O)C1 [II1B-01] | 1.79 nM
CCN(CCN(C)C)C(=O)O[C@H]1CC[C@@]2(C)[C@H](CC[C@@H]3[C@@H]2CC[C@]2(C)[C@@H](c4ccc(=O)oc4)CC[C@]32O)C1 [II1B-04] | 2.17 nM
CCNCCN(CC)C(=O)O[C@H]1CC[C@@]2(C)[C@H](CC[C@@H]3[C@@H]2CC[C@]2(C)[C@@H](c4ccc(=O)oc4)CC[C@]32O)C1 [II1B-06] | 1.11 nM
CNCCCN(C)C(=O)O[C@H]1CC[C@@]2(C)[C@H](CC[C@@H]3[C@@H]2CC[C@]2(C)[C@@H](c4ccc(=O)oc4)CC[C@]32O)C1 [II1B-07] | 1.15 nM
C[C@]12CC[C@H](OC(=O)NCCN)C[C@H]1CC[C@@H]1[C@@H]2CC[C@]2(C)[C@@H](c3ccc(=O)oc3)CC[C@]12O [II1B-09] | 5.72 nM
C[C@]12CC[C@H](OC(=O)NCCCN)C[C@H]1CC[C@@H]1[C@@H]2CC[C@]2(C)[C@@H](c3ccc(=O)oc3)CC[C@]12O [II1B-10] | 1.82 nM
CN1CCN(C(=O)O[C@H]2CC[C@@]3(C)[C@H](CC[C@@H]4[C@@H]3CC[C@]3(C)[C@@H](c5ccc(=O)oc5)CC[C@]43O)C2)CC1 [II1D-03] | 3.49 nM
C[C@]12CC[C@H](OC(=O)N3CCC(O)CC3)C[C@H]1CC[C@@H]1[C@@H]2CC[C@]2(C)[C@@H](c3ccc(=O)oc3)CC[C@]12O [II1D-04] | 38 nM
CCOC(=O)CCNC(=O)N1CCN(C(=O)O[C@H]2CC[C@@]3(C)[C@H](CC[C@@H]4[C@@H]3CC[C@]3(C)[C@@H](c5ccc(=O)oc5)CC[C@]43O)C2)CC1 [II1D-07] | 2.6 nM
C[C@]12CC[C@H](OC(=O)N3CCN(S(C)(=O)=O)CC3)C[C@H]1CC[C@@H]1[C@@H]2CC[C@]2(C)[C@@H](c3ccc(=O)oc3)CC[C@]12O [II1D-10] | 16.3 nM
COC(=O)c1ccccc1S(=O)(=O)N1CCN(C(=O)O[C@H]2CC[C@@]3(C)[C@H](CC[C@@H]4[C@@H]3CC[C@]3(C)[C@@H](c5ccc(=O)oc5)CC[C@]43O)C2)CC1 [II1D-12] | 41.8 nM
CC(=O)N1CCN(C(=O)O[C@H]2CC[C@@]3(C)[C@H](CC[C@@H]4[C@@H]3CC[C@]3(C)[C@@H](c5ccc(=O)oc5)CC[C@]43O)C2)CC1 [II1D-14] | 23.1 nM
C[C@]12CC[C@H](OC(=O)N3CCN(C(=O)c4ccccc4)CC3)C[C@H]1CC[C@@H]1[C@@H]2CC[C@]2(C)[C@@H](c3ccc(=O)oc3)CC[C@]12O [II1D-16] | 44.6 nM
C[C@]12CC[C@H](OC(=O)N3CCNC3)C[C@H]1CC[C@@H]1[C@@H]2CC[C@]2(C)[C@@H](c3ccc(=O)oc3)CC[C@]12O [II1D-19] | 5.8 nM
CNC1CCN(C(=O)O[C@H]2CC[C@@]3(C)[C@H](CC[C@@H]4[C@@H]3CC[C@]3(C)[C@@H](c5ccc(=O)oc5)CC[C@]43O)C2)CC1 [II1D-22] | 7.34 nM
CCNC1CCN(C(=O)O[C@H]2CC[C@@]3(C)[C@H](CC[C@@H]4[C@@H]3CC[C@]3(C)[C@@H](c5ccc(=O)oc5)CC[C@]43O)C2)CC1 [II1D-23] | 1.12 nM
C[C@]12CC[C@H](OC(=O)N3CCC(NCCO)CC3)C[C@H]1CC[C@@H]1[C@@H]2CC[C@]2(C)[C@@H](c3ccc(=O)oc3)CC[C@]12O [II1D-24] | 7.3 nM
CN(C)C1CCN(C(=O)O[C@H]2CC[C@@]3(C)[C@H](CC[C@@H]4[C@@H]3CC[C@]3(C)[C@@H](c5ccc(=O)oc5)CC[C@]43O)C2)CC1 [II1D-25] | 5.44 nM
C[C@]12CC[C@H](OC(=O)NCC3CCNCC3)C[C@H]1CC[C@@H]1[C@@H]2CC[C@]2(C)[C@@H](c3ccc(=O)oc3)CC[C@]12O [II1E-02] | 4.31 nM
CN1CCN(C(=O)N[C@H]2CC[C@@]3(C)[C@H](CC[C@@H]4[C@@H]3CC[C@]3(C)[C@@H](c5ccc(=O)oc5)CC[C@]43O)C2)CC1 [III1D-03] | 41.6 nM
